This passage reports fluorescence lifetime results from the Deep4Chem optical property database.

The nature of the data set: solvent given as SMILES.

Molecule `Cc1ccc(C2=C3C=CC(Cl)=[N+]3[B-](F)(F)n3c(Cl)ccc32)cc1` registered a fluorescence lifetime (in C1CCCCC1) of 2.1 ns; a fluorescence lifetime (in C1CCOC1) of 2.1 ns; a fluorescence lifetime (in CC#N) of 1.87 ns; a fluorescence lifetime (in CCOC(C)=O) of 2.07 ns; a fluorescence lifetime (in CO) of 1.88 ns; a fluorescence lifetime (in Cc1ccccc1) of 3.26 ns. For the setting “in ClC(Cl)Cl”, this molecule had a fluorescence lifetime of 3.66 ns.

With `F[B-]1(F)OC(c2ccc(C(F)(F)F)cc2)=Cc2ccc3ccccc3[n+]21`, the fluorescence lifetime (in ClC(Cl)Cl) came to 0.92 ns.

In turn, `C(=C\c1ccc(N(c2ccc(/C=C/c3ccc(N(c4ccccc4)c4ccccc4)cc3)cc2)c2ccc(-c3nc4ccccc4nc3-c3ccc(N(c4ccc(/C=C/c5ccc(N(c6ccccc6)c6ccccc6)cc5)cc4)c4ccc(/C=C/c5ccc(N(c6ccccc6)c6ccccc6)cc5)cc4)cc3)cc2)cc1)/c1ccc(N(c2ccccc2)c2ccccc2)cc1` displayed a fluorescence lifetime (in C1CCOC1) of 1.5 ns.

For the molecule `C[NH+](C)c1c2ccccc2cc2ccccc12`, under “in O”, the fluorescence lifetime is 17.3 ns.

On to `COc1cc2c(cc1-c1ccc(N(c3ccccc3)c3ccccc3)cc1)Cc1c3c(c4c(c1-2)-c1cc(OC)c(-c2ccc(N(c5ccccc5)c5ccccc5)cc2)cc1C4)C(=O)N(CCC(C)C)C3=O`, for which the fluorescence lifetime (in C1CCOC1) came out at 4.14 ns.

The molecule `N#CC1=c2c3cccc4c(Br)ccc(c43)n2[B-](F)(F)[n+]2ccccc21` registered a fluorescence lifetime (in ClCCl) of 7.8 ns.

In turn, `Cc1cc2ccccc2cc1C` gave a fluorescence lifetime (in C1CCCCC1) of 133 ns.

Regarding `c1cc2c3c(c1)OCCCCCCCOc1cccc(c1-c1c4ccccc4c-3c3ccccc13)OCCCCCCCO2`, the fluorescence lifetime (in C1CCCCC1) is 8.18 ns.

`Cc1ccc(C2=[N+]3C(=Cc4ccc(C)n4[B-]3(F)F)c3ccccc32)[nH]1` displayed a fluorescence lifetime (in ClCCl) of 8.11 ns.

In the case of `CCCCCCCC(=O)Oc1ccc2c3cccc4c(OC(=O)CCCCCCC)ccc(c5cccc1c52)c43`, the fluorescence lifetime turned out to be 4.35 ns (in C1CCOC1); 3.72 ns (in Cc1ccccc1); 3.89 ns (in ClC(Cl)(Cl)Cl); 4.16 ns (in ClC(Cl)Cl); 4.34 ns (in ClCCl); 3.88 ns (in c1ccncc1).

As for `CCCCCCCCN1c2ccc(C#Cc3ccc(C(F)(F)F)cc3)cc2Sc2cc(C=O)ccc21`, the fluorescence lifetime was 8.1 ns (in C1CCOC1); 6.52 ns (in CC#N); 6.45 ns (in CCCCCC); 4.04 ns (in CO); 7.77 ns (in CS(C)=O); 7.43 ns (in Cc1ccccc1). Under “in ClC(Cl)Cl”, the fluorescence lifetime stood at 7.03 ns.

Where the note is “in ClCCl”, `CN(C)c1ccc(-c2cc3c(s2)c(C(=O)c2ccccc2)cc(=O)n3Cc2ccccc2)cc1` registered a fluorescence lifetime of 1.01 ns.

In the case of `O=[N+]([O-])c1ccc(F)cc1C1CC(c2cccc3ccccc23)=NN1c1ccccc1` (stereo not given), the fluorescence lifetime by setting is: (in C1CCCCC1) 3.08 ns; (in C1CCOC1) 3.76 ns; (in C1COCCO1) 3.77 ns; (in CC#N) 3.81 ns; (in CC(C)O) 2.85 ns; (in CCOC(C)=O) 3.67 ns. Besides, the fluorescence lifetime is, setting by setting: (in CCOCC) 3.53 ns; (in CO) 2.86 ns; (in Cc1ccccc1) 3.29 ns; (in ClC(Cl)Cl) 3.68 ns; (in O) 1.4 ns.

As to `CCOc1ccc2c(-c3nc(-c4ccccc4F)no3)cc(=O)oc2c1`, the fluorescence lifetime reads like this: (in CCO) 6.6 ns; (in ClC(Cl)Cl) 5.1 ns.

`Cc1cc2nc3c(=O)[nH]c(=O)n(C)c3nc2cc1C` returned a fluorescence lifetime (in CC#N) of 0.63 ns.

In turn, `Cc1nc(-c2ccc(N3c4ccccc4C(c4ccccc4)(c4ccccc4)c4ccccc43)cc2)cc(-c2ccc(N3c4ccccc4C(c4ccccc4)(c4ccccc4)c4ccccc43)cc2)n1` returned a fluorescence lifetime (in O=P(c1ccccc1)(c1ccccc1)c1ccc2oc3ccc(P(=O)(c4ccccc4)c4ccccc4)cc3c2c1) of 11 ns.

Where the note is “in Cc1ccccc1”, `CC(C)(C)c1ccc(N2c3ccc(C(C)(C)C)cc3B3c4cc(C(C)(C)C)ccc4N(c4ccc(C(C)(C)C)cc4)c4cc(-n5c6ccc(C(C)(C)C)cc6c6cc(C(C)(C)C)ccc65)cc2c43)cc1` showed a fluorescence lifetime of 6.02 ns.
